Measured values reported in patent US20250221966A1, “RXFP1 AGONISTS” (BRISTOL-MYERS SQUIBB COMPANY, priority 2021, published 2025).

The compounds below were run against T1, human RXFP1 (Homo sapiens, UniProt Q9HBX9) (assay: RXFP1 cAMP assay (hRXFP1 HEK293 cAMP assay, HTRF)). Details: HEK293 cells stably expressing human RXFP1, 30 min at room temperature, read-out: cAMP hRXFP1 HEK293 Assay EC50.
T1 construct: expressed in transfected cells
T1 sequence (Q9HBX9 1-757): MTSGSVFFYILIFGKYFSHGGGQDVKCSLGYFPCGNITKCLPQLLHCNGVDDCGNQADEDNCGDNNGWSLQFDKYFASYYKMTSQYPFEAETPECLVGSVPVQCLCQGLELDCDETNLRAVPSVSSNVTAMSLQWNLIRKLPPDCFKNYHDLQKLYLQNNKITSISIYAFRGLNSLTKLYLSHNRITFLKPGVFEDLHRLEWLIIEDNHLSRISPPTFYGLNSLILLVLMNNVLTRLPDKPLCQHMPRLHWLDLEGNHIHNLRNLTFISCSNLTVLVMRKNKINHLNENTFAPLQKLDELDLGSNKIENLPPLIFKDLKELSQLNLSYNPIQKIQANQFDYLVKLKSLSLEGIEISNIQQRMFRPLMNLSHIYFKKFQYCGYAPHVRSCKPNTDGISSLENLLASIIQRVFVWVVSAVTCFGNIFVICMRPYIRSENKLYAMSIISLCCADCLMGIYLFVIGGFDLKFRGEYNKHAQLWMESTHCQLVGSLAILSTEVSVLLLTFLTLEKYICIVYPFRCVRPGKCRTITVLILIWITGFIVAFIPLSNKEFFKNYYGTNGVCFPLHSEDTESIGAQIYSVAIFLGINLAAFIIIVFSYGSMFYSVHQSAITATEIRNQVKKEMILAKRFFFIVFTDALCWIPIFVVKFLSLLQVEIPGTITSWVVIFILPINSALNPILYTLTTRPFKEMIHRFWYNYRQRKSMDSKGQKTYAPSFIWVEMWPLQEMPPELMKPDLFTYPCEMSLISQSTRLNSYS
Assay type: cell-based
Method in brief: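 In a stable human RXFP1 HEK293 line, compounds acted for 30 min at RT in buffer with 0.5 mM IBMX. HTRF then quantified cellular cAMP.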

EC50 [nM]	SMILES
214	COc1ccc(-c2cc(C(=O)N3CC[C@H](O)C3)on2)cc1C(=O)N[C@H]1[C@@H](C(=O)Nc2ccc(F)c(C(F)(F)F)c2)[C@H]2CC[C@@H]1/C2=C\C1CC1 [compound 640]
3.9	COc1c(F)cc(C2=NOC(CO)C2)cc1C(=O)N[C@H]1[C@@H](C(=O)Nc2ccc(F)c(C(F)(F)F)c2)[C@H]2CC[C@@H]1/C2=C\CC(O)C(F)(F)F (stereo partly drawn) [compound 835]
912	COc1ccc(C2=NOC(C(=O)O)(C(C)(C)C)C2)cc1C(=O)N[C@H]1[C@@H](C(=O)Nc2ccc(F)c(C(F)(F)F)c2)[C@H]2CC[C@@H]1/C2=C\C(F)(F)F (stereo partly drawn) [Example 397, 5-(tert-butyl)-3-(3-(((1R,2R,3S,4R,Z)-3-((4-fluoro-3-(trifluoromethyl)phenyl)carbamoyl)-7-(2,2,2-trifluoroethylidene)bicyclo[2.2.1]heptan-2-yl)carbamoyl)-4-methoxyphenyl)-4,5-dihydroisoxazole-5-carboxylic acid]
7	COc1ccc(-c2cc(OC(F)(F)F)ccc2F)cc1C(=O)N[C@@H]1C2CCC(/C2=C/C2CC2)[C@@H]1C(=O)Nc1ccc(F)c(C(F)(F)F)c1 (stereo partly drawn) [compound 285]
59	CCC/C=C/C=C1\C2CCC1[C@H](C(=O)Nc1ccc(F)c(C(F)(F)F)c1)[C@@H]2NC(=O)c1cc(F)c(F)cc1OC (stereo partly drawn) [compound 45]
3000	COc1cc(F)c(F)cc1C(=O)N[C@@H]1C2CCC(/C2=C\c2ccccc2)[C@]1(F)C(=O)Nc1ccc(F)c(C(F)(F)F)c1 (stereo partly drawn) [Example 52]
3	COc1ccc(-c2cc(C(C)OC(=O)Nc3ccc(F)cc3)ccc2F)cc1C(=O)N[C@@H]1C2CCC(/C2=C/C2CC2)[C@@H]1C(=O)Nc1ccc(F)c(C(F)(F)F)c1 (stereo partly drawn) [compound 226]
8.7	COc1ccc(C2=NOC(C3(O)CC3)C2)cc1C(=O)N[C@H]1[C@@H](C(=O)Nc2ccc(F)c(C(F)(F)F)c2)[C@H]2CC[C@@H]1/C2=C\C1CC1 (single isomer, unassigned) [compound 491]
1	COc1ccc(-c2cc(C3=NOC4CC(CO)CC34)ccc2F)cc1C(=O)N[C@H]1[C@@H](C(=O)Nc2ccc(F)c(C(F)(F)F)c2)[C@H]2CC[C@@H]1/C2=C\C1CCCC1 (stereo partly drawn) [compound 951]
121	COc1ccc(C2=NOC3COCC23)cc1C(=O)N[C@H]1[C@@H](C(=O)NCc2ccccc2C2CC2)[C@H]2CC[C@@H]1/C2=C\C1CC1 (stereo partly drawn) [compound 606]
0.8	COc1ccc(C2=NO[C@H]3C[C@H](CO)C[C@@H]23)cc1C(=O)N[C@H]1[C@@H](C(=O)N[C@H](C)C2(C)CC2)[C@H]2CC[C@@H]1/C2=C\CCC(F)(F)F [compound 812]
4	COc1ccc(C2=NOC3CC(C)(CO)CC23)cc1C(=O)N[C@H]1[C@@H](C(=O)N[C@H](C)C2(C)CC2)[C@H]2CC[C@@H]1/C2=C\c1csc(C(F)(F)F)n1 (stereo partly drawn) [compound 915]
890	COc1cc(F)c(F)cc1C(=O)N[C@@H]1C2CCC(/C2=C/c2cccc(C#N)c2)[C@@H]1C(=O)Nc1ccc(F)c(C(F)(F)F)c1 (stereo partly drawn) [compound 59]
5.3	COc1ccc(-c2cc(S(=O)(=O)NC(C)(C)C)ccc2F)cc1C(=O)N[C@H]1[C@@H](C(=O)N[C@H](C)C2(C)CC2)[C@H]2CC[C@@H]1/C2=C\C1CC1 [compound 957]
2	CNC(=O)C(OC(=O)Nc1ccccc1)c1ccc(F)c(-c2ccc(OC)c(C(=O)N[C@@H]3C4CCC(/C4=C/C4CC4)[C@@H]3C(=O)Nc3ccc(F)c(C(F)(F)F)c3)c2)c1 (stereo partly drawn) [compound 237]
139	COc1ccc(-c2cc(C(=O)O)ccc2F)cc1C(=O)N[C@@H]1C2CCC(/C2=C/C2CC2)[C@@H]1C(=O)N[C@@H](C)c1ccccc1C(F)(F)F (stereo partly drawn) [compound 262]
7	COc1ccc(-c2cccc(CC(F)(F)F)c2)cc1C(=O)N[C@@H]1C2CCC(/C2=C/C2CC2)[C@@H]1C(=O)Nc1ccc(F)c(C(F)(F)F)c1 (stereo partly drawn) [compound 287]
1.2	COc1ccc(C2=NOC3CC(C(C)O)CC23)cc1C(=O)N[C@H]1[C@@H](C(=O)Nc2ccc(F)c(C(F)(F)F)c2)[C@H]2CC[C@@H]1/C2=C\C1CC1 (stereo partly drawn) [compound 844]
